The target of assay [1] is Receptor tyrosine-protein kinase erbB-2 (Homo sapiens, UniProt P04626). The assay is described as follows: biochemical. The class given is cell-based, Insect cells.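 Further: inhibition of HER2 kinase enzyme activity, measured with Poly(Glu:Tyr) as the phosphorylation substrate; in other assays of this panel Not Active means under 50% inhibition at 10 µM.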
Another assay has as its target Mu-type opioid receptor (Homo sapiens, UniProt P35372). The assay is described as follows: DRUGMATRIX: Opiate mu (OP3, MOP) radioligand binding (ligand: [3H] Diprenorphine). The class given is cell membranes, CHO-K1, Membrane. Conditions: Not Active = under 50% inhibition at 10 µM.
The target of assay [2] is Kappa-type opioid receptor (Homo sapiens, UniProt P41145). The assay is described as follows: DRUGMATRIX: Opiate kappa (OP2, KOP) radioligand binding (ligand: [3H] Diprenorphine). The class given is cell membranes, HEK293, Membrane. Conditions: Not Active = under 50% inhibition at 10 µM.
Kappa-type opioid receptor, sequence (P41145 whole entry): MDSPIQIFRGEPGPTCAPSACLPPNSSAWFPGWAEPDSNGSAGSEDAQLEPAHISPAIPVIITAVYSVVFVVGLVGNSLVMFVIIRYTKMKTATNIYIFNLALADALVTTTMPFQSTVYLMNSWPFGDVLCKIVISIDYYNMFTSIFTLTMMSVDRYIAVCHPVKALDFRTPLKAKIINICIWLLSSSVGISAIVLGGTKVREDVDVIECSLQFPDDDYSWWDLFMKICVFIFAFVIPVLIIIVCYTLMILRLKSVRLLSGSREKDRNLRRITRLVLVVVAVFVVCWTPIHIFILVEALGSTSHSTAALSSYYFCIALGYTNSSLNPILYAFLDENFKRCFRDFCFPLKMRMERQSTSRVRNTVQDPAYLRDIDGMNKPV
Assay [3] is described as follows: DRUGMATRIX: Tumor Necrosis Factor (TNF), Non-Selective radioligand binding (ligand: [125I] TNF-alpha). The class given is cell membranes, Membrane. The conditions noted are these: u-937; Not Active = under 50% inhibition at 10 µM.
Assay [4] has as its target Mitogen-activated protein kinase 14 (Homo sapiens, UniProt Q16539). Also on record: species or system Escherichia coli.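 Further: inhibition of p38alpha enzyme activity in a biochemical kinase assay, with myelin basic protein serving as substrate; in other assays of this panel Not Active means under 50% inhibition at 10 µM.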
For assay [5], the target named is Epidermal growth factor receptor (Homo sapiens, UniProt P00533). The assay is described as follows: DRUGMATRIX: Protein Tyrosine Kinase, EGF Receptor enzyme inhibition (substrate: Poly(Glu:Tyr)). It counts as cell-based, Insect cells. Conditions: Not Active = under 50% inhibition at 10 µM.
The target of another assay is T1, Neutrophil elastase (Homo sapiens, UniProt P08246).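 Further: inhibition of neutrophil elastase enzyme activity, measured with a p-nitroanilide-linked peptide substrate; in other assays of this panel Not Active means under 50% inhibition at 10 µM.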
T1 sequence (P08246 whole entry): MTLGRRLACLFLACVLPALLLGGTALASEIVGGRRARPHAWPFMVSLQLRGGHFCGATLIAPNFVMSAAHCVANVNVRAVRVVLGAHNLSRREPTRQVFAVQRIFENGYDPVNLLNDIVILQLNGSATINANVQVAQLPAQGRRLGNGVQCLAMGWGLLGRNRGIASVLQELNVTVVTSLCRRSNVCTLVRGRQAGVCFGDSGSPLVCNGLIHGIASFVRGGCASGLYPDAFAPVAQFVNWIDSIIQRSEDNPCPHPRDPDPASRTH
It counts as tissue-based.

Mitogen-activated protein kinase 14, sequence (Q16539 whole entry): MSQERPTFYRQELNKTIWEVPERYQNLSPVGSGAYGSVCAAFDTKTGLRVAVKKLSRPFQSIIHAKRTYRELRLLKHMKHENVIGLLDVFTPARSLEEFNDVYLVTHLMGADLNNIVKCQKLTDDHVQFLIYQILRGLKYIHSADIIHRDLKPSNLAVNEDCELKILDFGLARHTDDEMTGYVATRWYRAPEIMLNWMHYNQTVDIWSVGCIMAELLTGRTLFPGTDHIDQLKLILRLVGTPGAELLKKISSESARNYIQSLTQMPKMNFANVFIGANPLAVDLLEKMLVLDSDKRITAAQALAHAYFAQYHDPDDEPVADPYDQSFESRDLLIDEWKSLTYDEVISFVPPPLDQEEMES
Mu-type opioid receptor, sequence (P35372 whole entry): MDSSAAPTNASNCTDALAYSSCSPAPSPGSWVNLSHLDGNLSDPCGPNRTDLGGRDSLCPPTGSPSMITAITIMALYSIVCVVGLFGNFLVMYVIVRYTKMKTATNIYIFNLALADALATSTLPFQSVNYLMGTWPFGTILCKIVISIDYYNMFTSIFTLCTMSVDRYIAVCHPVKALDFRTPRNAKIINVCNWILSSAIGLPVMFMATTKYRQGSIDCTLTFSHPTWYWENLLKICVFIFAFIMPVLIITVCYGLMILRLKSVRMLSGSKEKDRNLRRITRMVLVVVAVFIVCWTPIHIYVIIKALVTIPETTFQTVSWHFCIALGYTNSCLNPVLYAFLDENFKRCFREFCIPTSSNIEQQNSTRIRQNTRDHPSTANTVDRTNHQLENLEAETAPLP

With `COc1ccc(CCN(C)CCCC(C#N)(c2ccc(OC)c(OC)c2)C(C)C)cc1OC` (stereo unspecified), the IC50 entry (in assay [1] (insect cells); at Mu-type opioid receptor (cho-k1); in assay [2] (hek293); in assay [3]; in assay [4]; in assay [5] (insect cells)) was “Not Active” each time. Moreover, the IC50 entry against Neutrophil elastase is “Not Active”. In addition, the Ki result in assay [3] is “Not Active”.

As for `CC(C)Cc1ccc([C@@H](C)C(=O)O)cc1` [(R)-IBUPROPHEN], the IC50 result (in assay [1] (insect cells); at Mu-type opioid receptor (cho-k1); in assay [2] (hek293); in assay [3]; in assay [4]; in assay [5] (insect cells)) was “Not Active” throughout. The IC50 result on Neutrophil elastase is “Not Active”. The Ki result in assay [3] is recorded as “Not Active”.

Regarding `CC(C)NCC(O)c1ccc(O)c(O)c1` (stereo unspecified) [ISOPROTERENOL], the IC50 entry (in assay [1] (insect cells); at Mu-type opioid receptor (cho-k1); in assay [2] (hek293); in assay [3]; in assay [4]; in assay [5] (insect cells)) was “Not Active” in each case. On Neutrophil elastase, the IC50 entry is on record as “Not Active”. For the same compound, the Ki entry in assay [3] is “Not Active”.

For `NC(=O)N1C(=O)/C(=C(\O)c2cccs2)c2cc(Cl)ccc21` [TENIDAP], the IC50 result (in assay [1] (insect cells); at Mu-type opioid receptor (cho-k1); in assay [2] (hek293); in assay [3]; in assay [4]; in assay [5] (insect cells)) was “Not Active” throughout. Besides, the IC50 entry against Neutrophil elastase was “Not Active”. For the same compound, the Ki result in assay [3] is given as “Not Active”.

As for `NC1CCN(c2nc3c(cc2F)c(=O)c(C(=O)O)cn3-c2ccc(F)cc2F)C1` (stereo unspecified) [TOSUFLOXACIN], the IC50 result (in assay [1] (insect cells); on Mu-type opioid receptor (cho-k1); in assay [2] (hek293); in assay [3]; in assay [4]; in assay [5] (insect cells)) was “Not Active” in each case. In addition, on Neutrophil elastase, the IC50 entry is listed as “Not Active”. The Ki entry in assay [3] is “Not Active”.

`N#Cc1ccc(C(c2ccc(C#N)cc2)n2cncn2)cc1` [LETROZOLE]: the IC50 entry (in assay [1] (insect cells); on Mu-type opioid receptor (cho-k1); in assay [2] (hek293); in assay [3]; in assay [4]; in assay [5] (insect cells)) was “Not Active” each time. Moreover, the IC50 entry at Neutrophil elastase was “Not Active”. Also, in assay [3], the inhibitory constant (Ki) result was “Not Active”.

Turning to `O=C(Nc1ccc(Br)cc1)c1cc(Br)cc(Br)c1O` [TRIBROMSALAN], the IC50 was 5.97 µM in assay [1] (read-out: IC50); “Not Active” in assay [3]; 0.715 µM in assay [4] (read-out: IC50); 2.99 µM in assay [5] (read-out: IC50); “Not Active” against Neutrophil elastase. Besides, the Ki result in assay [3] is given as “Not Active”.

For `O=C1Nc2ccc(Cl)cc2C(c2ccccc2Cl)=NC1O` (stereo unspecified) [LORAZEPAM], the IC50 entry (in assay [1] (insect cells); at Mu-type opioid receptor (cho-k1); in assay [2] (hek293); in assay [3]; in assay [4]; in assay [5] (insect cells)) was “Not Active” each time. In addition, the IC50 entry on Neutrophil elastase is “Not Active”. Also, the Ki entry in assay [3] is “Not Active”.

Consider `CC(C)Oc1ccc2c(=O)c(-c3ccccc3)coc2c1` [IPRIFLAVONE], for which the IC50 entry (in assay [1] (insect cells); at Mu-type opioid receptor (cho-k1); in assay [2] (hek293); in assay [3]; in assay [4]; in assay [5] (insect cells)) was “Not Active” throughout. Also, at Neutrophil elastase, the IC50 entry is “Not Active”. For the same compound, the Ki entry in assay [3] is “Not Active”.

As for `CNC1(c2ccccc2Cl)CCCCC1=O` (stereo unspecified) [KETAMINE], the IC50 entry (in assay [1] (insect cells); on Mu-type opioid receptor (cho-k1); in assay [2] (hek293); in assay [3]; in assay [4]; in assay [5] (insect cells)) was “Not Active” each time. Further, the IC50 result against Neutrophil elastase was “Not Active”. Further, the Ki result in assay [3] is “Not Active”.

On to `O=C(O)c1cn(-c2ccc(F)cc2)c2cc(N3CCNCC3)c(F)cc2c1=O` [SARAFLOXACIN], for which the IC50 result (in assay [1] (insect cells); at Mu-type opioid receptor (cho-k1); in assay [2] (hek293); in assay [3]; in assay [4]; in assay [5] (insect cells)) was “Not Active” each time. Moreover, the IC50 result at Neutrophil elastase was “Not Active”. For the same compound, in assay [3], the Ki entry is on record as “Not Active”.

Consider `CCN(CC)CCOc1ccc(/C(=C(/Cl)c2ccccc2)c2ccccc2)cc1` [ENCLOMIPHENE], for which the half-maximal inhibitory concentration (IC50) is 1.67 µM in assay [1] (read-out: IC50); “Not Active” at Mu-type opioid receptor (cho-k1); “Not Active” in assay [2] (hek293); “Not Active” in assay [4]; 1.05 µM in assay [5] (read-out: IC50); “Not Active” against Neutrophil elastase.

For the compound SODIUM ORTHOVANAD, the IC50 entry (in assay [1] (insect cells); in assay [3]; in assay [4]; in assay [5] (insect cells); against Neutrophil elastase) was “Not Active” throughout. For the same compound, the Ki result (in assay [1] (insect cells); in assay [3]; in assay [4]; in assay [5] (insect cells); at Neutrophil elastase) was “Not Active” in each case.

`Cn1c(=O)c2nc[nH]c2n(C)c1=O.O` [THEOPHYLLINE]: the IC50 entry (in assay [1] (insect cells); on Mu-type opioid receptor (cho-k1); in assay [2] (hek293); in assay [3]; in assay [4]; in assay [5] (insect cells)) was “Not Active” in each case. For the same compound, the IC50 result against Neutrophil elastase is reported as “Not Active”. Further, the Ki entry in assay [3] was “Not Active”.

For the compound `CO[C@@H]1[C@@H](OC)[C@H](C)[C@@](O)(CC(=O)O)O[C@H]1[C@H](C)[C@H]1O[C@@]2(CC[C@@](C)([C@H]3CC[C@@](C)([C@@H]4O[C@@H]([C@H]5O[C@](C)(O)[C@H](C)C[C@@H]5C)C[C@@H]4O[C@@H]4C[C@H](OC)[C@@H](OC)[C@H](C)O4)O3)O2)C[C@H](O)[C@H]1C` [MADURAMICIN ACID], the IC50 result (in assay [1] (insect cells); on Mu-type opioid receptor (cho-k1); in assay [2] (hek293); in assay [3]; in assay [4]; in assay [5] (insect cells)) was “Not Active” in each case. Besides, the IC50 result on Neutrophil elastase is recorded as “Not Active”. In addition, the Ki entry in assay [3] is recorded as “Not Active”.

Regarding `CN[C@H]1CC[C@@H](c2ccc(Cl)c(Cl)c2)c2ccccc21` [SERTRALINE], the IC50 entry (in assay [1] (insect cells); on Mu-type opioid receptor (cho-k1); in assay [2] (hek293); in assay [4]; in assay [5] (insect cells); against Neutrophil elastase) was “Not Active” each time.

For `CCN(CC)CC(=O)Nc1c(C)cccc1C` [LIDOCAINE], the IC50 entry (in assay [1] (insect cells); on Mu-type opioid receptor (cho-k1); in assay [2] (hek293); in assay [3]; in assay [4]; in assay [5] (insect cells)) was “Not Active” throughout. For the same compound, the IC50 entry against Neutrophil elastase was “Not Active”. Also, in assay [3], the Ki result is “Not Active”.

On to `CN(C)CCOC(c1ccccc1)c1ccccc1` [DIPHENHYDRAMINE], for which the IC50 entry (in assay [1] (insect cells); on Mu-type opioid receptor (cho-k1); in assay [2] (hek293); in assay [4]; in assay [5] (insect cells); on Neutrophil elastase) was “Not Active” in each case.

With `CC[C@@H](C(=O)[C@@H](C)[C@@H](O)[C@H](C)[C@@H]1O[C@@H]([C@@H](CC)C(=O)O)CC[C@@H]1C)[C@H]1O[C@]2(C=C[C@@H](O)[C@]3(CC[C@@](C)([C@H]4CC[C@](O)(CC)[C@H](C)O4)O3)O2)[C@H](C)C[C@@H]1C` [SALINOMYCIN], the IC50 entry (in assay [1] (insect cells); in assay [3]; in assay [4]; in assay [5] (insect cells); on Neutrophil elastase) was “Not Active” each time. In assay [3], the Ki result is reported as “Not Active”.

As for `Fc1ccc(C(c2ccc(F)cc2)N2CCN(C/C=C/c3ccccc3)CC2)cc1` [FLUNARIZINE], the IC50 entry in assay [1] (insect cells) was “Not Active”; on Mu-type opioid receptor (read-out: IC50), 5.24 µM; in assay [2] (hek293), “Not Active”; in assay [4], “Not Active”; in assay [5] (insect cells) it was “Not Active”; at Neutrophil elastase, “Not Active”. Besides, the affinity at Mu-type opioid receptor, expressed as Ki, was 2.12 µM.

MANGANESE CHLORIDE ANHYDROUS: the half-inhibitory concentration (IC50) entry (in assay [1] (insect cells); in assay [3]; in assay [4]; in assay [5] (insect cells); at Neutrophil elastase) was “Not Active” in each case. The Ki result (in assay [1] (insect cells); in assay [3]; in assay [4]; in assay [5] (insect cells); on Neutrophil elastase) was “Not Active” throughout.

With `CNCCC(Oc1ccc(C(F)(F)F)cc1)c1ccccc1` (stereo unspecified) [FLUOXETINE], the IC50 result (in assay [1] (insect cells); at Mu-type opioid receptor (cho-k1); in assay [2] (hek293); in assay [4]; in assay [5] (insect cells); on Neutrophil elastase) was “Not Active” throughout.

`Cc1ccc(NC(=O)c2ccc(CN3CCN(C)CC3)cc2)cc1Nc1nccc(-c2cccnc2)n1` [IMATINIB]: the IC50 entry (at Mu-type opioid receptor (cho-k1); in assay [2] (hek293); at Neutrophil elastase) was “Not Active” each time.

Regarding `Clc1ccc(COC(Cn2ccnc2)c2ccc(Cl)cc2Cl)cc1` (stereo unspecified) [ECONAZOLE], the IC50 was 13.9 µM in assay [1] (read-out: IC50); 8.62 µM in assay [2] (read-out: IC50); “Not Active” in assay [4]; 32.4 µM in assay [5] (read-out: IC50); “Not Active” against Neutrophil elastase. The compound also displayed a Ki in assay [2] of 3.45 µM.

As usually defined, the IC50 is the point on the concentration scale where inhibition reaches its midpoint. By Ki is commonly meant a dissociation constant, usually derived from enzyme kinetics or from competition with a known ligand.

Source of the values: ChEMBL document CHEMBL1909046, “DrugMatrix in vitro pharmacology data”.
